Assay results published in the supplement of paper PMC10331698.
± gives the standard deviation of the averaged measurements.

Tests used:
Assay in all cases: LOEC (log10 uM (lowest observed effect concentration))
Perfluorodecanoic acid = compound: O=C(O)C(F)(F)C(F)(F)C(F)(F)C(F)(F)C(F)(F)C(F)(F)C(F)(F)C(F)(F)C(F)(F)F [Perfluorodecanoic acid]
Description: (§1)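 BioMAP Diversity Plus panel in human primary cell co-cultures, 4 concentrations in duplicate blinded samples. Responses are log10 fold change versus DMSO control, processed with tcpl v2.1.0. A hit is called when responses at any concentration exceed the cutoff (the larger of 3*bmad or log10(1.2)); the lowest observed effect concentration (modl_ga, log10 uM) is reported for hits.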

[1] = compound: OCCCC(F)(F)C(F)(F)C(F)(F)C(F)(F)C(F)(F)C(F)(F)C(F)(F)F [7:3 Fluorotelomer alcohol]
Description: as §1

[2] = compound: C[N+](C)(C)CCCNS(=O)(=O)C(F)(F)C(F)(F)C(F)(F)C(F)(F)C(F)(F)C(F)(F)C(F)(F)C(F)(F)F [Perfluorooctanesulfonamido ammonium iodide]
Description: as §1

[3] = compound: CCN(CCO)S(=O)(=O)C(F)(F)C(F)(F)C(F)(F)C(F)(F)C(F)(F)C(F)(F)C(F)(F)C(F)(F)F [N-Ethyl-N-(2-hydroxyethyl)perfluorooctanesulfonamide]
Description: as §1

Perfluoro-1-iodohexane = compound: FC(F)(F)C(F)(F)C(F)(F)C(F)(F)C(F)(F)C(F)(F)I [Perfluoro-1-iodohexane]
Description: as §1

[4] = compound: O=C(O)C(F)(F)C(F)(F)C(F)(F)C(F)(F)C(F)(F)C(F)(F)C(F)(F)C(F)F [9-H-Perfluorononanoic acid]
Description: as §1

[5] = compound: OCC(F)(F)OC(F)(F)C(F)(F)OC(F)(F)CO [1H,1H,8H,8H-Perfluoro-3,6-dioxaoctane-1,8-diol]
Description: as §1

[6] = compound: C=CC(=O)OCC(F)(F)C(F)(F)C(F)(F)C(F)(F)C(F)(F)C(F)(F)C(F)(F)F [1H,1H-Perfluorooctyl acrylate]
Description: as §1

[7] = compound: FC(F)(F)C(F)(F)C(F)(F)C(F)(F)C(F)(F)CCI [1-Iodo-1H,1H,2H,2H-perfluoroheptane]
Description: as §1

[8] = compound: O=S(=O)(O)C(F)(F)C(F)(F)C(F)(F)C(F)(F)C(F)(F)C(F)(F)F [Perfluorohexanesulfonic acid]
Description: as §1

[9] = compound: OCCC(F)(F)C(F)(F)C(F)(F)C(F)(F)C(F)(F)C(F)(F)F [6:2 Fluorotelomer alcohol]
Description: as §1

[10] = compound: O=C(O)C(F)(F)C(F)(F)C(F)(F)OC(F)(C(F)(F)F)C(F)(F)F [Perfluoro-4-isopropoxybutanoic acid]
Description: as §1

Perfluoroheptanoic acid = compound: O=C(O)C(F)(F)C(F)(F)C(F)(F)C(F)(F)C(F)(F)C(F)(F)F [Perfluoroheptanoic acid]
Description: as §1

[11] = compound: O=C(O)C(F)(F)OC(F)(F)C(F)(F)OC(F)(F)F [Perfluoro-3,6-dioxaheptanoic acid]
Description: as §1

| Test System | LOEC (log10 uM) (Perfluorodecanoic acid) | LOEC (log10 uM) [1] | LOEC (log10 uM) [2] | LOEC (log10 uM) [3] | LOEC (log10 uM) [4] | also measured |
| --- | --- | --- | --- | --- | --- | --- |
| MyoF CollagenI down | 1.3 | 1.78 | 1.78 | 1.3 |  | LOEC (log10 uM) (Perfluoro-1-iodohexane): 1.78 |
| BF4T ICAM1 down | 1.3 | 1.78 |  |  | 1.07 ± 0.32 |  |
| MyoF CollagenIII down | 1.3 | 1.78 | 1.78 | 1.3 |  | LOEC (log10 uM) (Perfluoro-1-iodohexane): 1.78 |
| IMphg CD40 down | 1.78 | 1.78 | 1.54 ± 0.34 |  |  | LOEC (log10 uM) [5]: 1.3 |
| BE3C IP10 down | 0.845 | 1.78 | 1.78 | 1.3 | 1.78 |  |
| MyoF SRB down | 1.54 ± 0.34 | 1.78 | 1.78 | 1.3 |  | LOEC (log10 uM) (Perfluoro-1-iodohexane): 1.3 |
| BF4T tPA down | 1.3 | 1.78 | 1.3 |  | 1.07 ± 0.32 |  |
| MyoF ACTA1 down | 1.78 | 1.78 | 1.3 | 1.3 |  | LOEC (log10 uM) (Perfluoro-1-iodohexane): 1.3 |
| BF4T MCP1 down | 1.3 | 1.54 ± 0.34 |  |  | 0.573 ± 0.39 |  |
| BT xIL17F down |  | 1.3 | 1.3 | 1.3 |  | LOEC (log10 uM) [6]: 1.3 |
| hDFCGF MCSF down | 1.3 | 1.3 |  | 1.07 ± 0.32 |  | LOEC (log10 uM) [7]: 1.78 |
| IMphg IL10 down | 1.78 |  | 1.3 |  | 1.78 | LOEC (log10 uM) [8]: 1.78 |
| SAg Proliferation down | 1.78 | 1.3 | 1.78 | 1.3 |  | LOEC (log10 uM) [9]: 1.78 |
| BF4T Eotaxin3 down | 1.3 | 1.31 ± 0.66 |  |  | 0.845 | LOEC (log10 uM) [7]: 1.78 |
| hDFCGF Proliferation down | 1.3 | 0.845 |  | 0.573 ± 0.39 |  | LOEC (log10 uM) [7]: 1.3; LOEC (log10 uM) [9]: 1.78; LOEC (log10 uM) [6]: 1.78 |
| 3C SRB down | 1.78 | 1.3 | 1.78 | 1.07 ± 0.32 |  | LOEC (log10 uM) [9]: 1.78 |
| CASM3C Proliferation down |  | 1.3 |  | 1.3 |  | LOEC (log10 uM) [7]: 1.54 ± 0.34 |
| BE3C HLADR down | 1.3 | 1.78 | 1.78 | 1.3 | 1.07 ± 0.32 |  |

| Test System | LOEC (log10 uM) (Perfluorodecanoic acid) | LOEC (log10 uM) [1] | LOEC (log10 uM) [2] | LOEC (log10 uM) [3] | LOEC (log10 uM) [4] | also measured |
| --- | --- | --- | --- | --- | --- | --- |
| BT Bcell Proliferation up | 1.78 |  |  |  | 1.78 |  |
| BT PBMCCytotoxicity up |  |  |  |  | 1.78 |  |
| MyoF MMP1 up |  |  | 1.78 | 1.3 |  | LOEC (log10 uM) (Perfluoro-1-iodohexane): 1.3 |
| MyoF PAI1 down | 1.78 | 1.78 | 1.78 |  |  | LOEC (log10 uM) (Perfluoro-1-iodohexane): 1.78 |
| LPS IL8 up |  |  |  |  | 1.54 ± 0.34 | LOEC (log10 uM) [10]: 1.54 ± 0.34 |
| hDFCGF ITAC down | 1.3 | 1.3 | 1.78 | 1.07 ± 0.32 | 1.54 ± 0.34 | LOEC (log10 uM) [7]: 1.78; LOEC (log10 uM) [9]: 1.78 |
| hDFCGF SRB down | 1.78 | 1.3 | 1.78 | 0.573 ± 0.39 |  | LOEC (log10 uM) [9]: 1.78 |
| MyoF VCAM1 down | 1.54 ± 0.34 | 1.78 | 1.78 | 1.3 |  | LOEC (log10 uM) (Perfluoro-1-iodohexane): 1.54 ± 0.34 |
| BE3C MMP1 up |  |  | 1.78 | 0.845 | 1.78 | LOEC (log10 uM) [7]: 1.54 ± 0.34; LOEC (log10 uM) [8]: 1.78 |
| hDFCGF SRB up |  |  |  |  | 1.54 ± 0.34 |  |
| 3C Proliferation down | 1.78 | 1.07 ± 0.32 | 1.78 | 0.573 ± 0.39 |  | LOEC (log10 uM) [7]: 1.78; LOEC (log10 uM) [9]: 1.78; LOEC (log10 uM) [6]: 1.78 |
| hDFCGF VCAM1 down | 0.801 ± 0.71 | 1.3 | 1.78 | 1.54 ± 0.34 |  | LOEC (log10 uM) [7]: 1.78; LOEC (log10 uM) [9]: 1.78 |
| 4H Pselectin up |  |  |  |  | 1.78 |  |
| IMphg IL8 up |  |  |  | 1.78 | 1.78 | LOEC (log10 uM) (Perfluoroheptanoic acid): 1.78; LOEC (log10 uM) [10]: 1.78; LOEC (log10 uM) [11]: 1.78 |
| hDFCGF MMP1 down | 1.3 | 1.3 |  | 1.78 | 1.3 |  |
| hDFCGF IP10 down | 1.07 ± 0.32 | 1.3 | 1.78 | 1.07 ± 0.32 |  | LOEC (log10 uM) [7]: 1.78 |
| BF4T PAI1 down | 1.3 | 1.78 |  |  | 0.845 |  |
